{
  "source": "patent US8653086B2",
  "about": "“Naphthamides as anticancer agents” (Oregon Health & Science University, priority 2008, dated 2014)",
  "key": {"[1]": {"tested_on": "A549 cells", "assay": "A549 live cell count, trypan blue", "format": "cell-based, human", "settings": "48 h, live cells counted", "protocol": "(§1) (A) Inhibitory effect of CREB-mediated gene transcription by compounds i and ii in HEK 293 cells. Cells were transiently transfected with a plasmid encoding firefly luciferase under the control of three iterative copies of CRE (pCRE-Luc). Compound i or ii was added to the transfected cells in triplicate 30 min prior to the addition of forskolin (Fsk, 10 μM). The luciferase activity was measured using Dual Luciferase Reagent (Promega) and normalized to the co-transfected renilla luciferase (pRL-SV40, Promega). (B) Exponentially growing A549 cells in a 6-well plate (1.5×10^5 cells/well) were treated increasing concentrations of compound i or ii in triplicate for 48 h. […] Data were presented as mean±SD.\n(§2) To investigate whether apoptosis was activated upon treatment, A549 cells were treated with either naphthol AS-E phosphate (i, 10 μM) or naphthol AS-E (ii, 10 μM) for 48 h. The cells were then analyzed by flow cytometry after staining with annexin-V and propidium iodide (PI). In this two-dye binding assay, annexin-V will bind phosphatidylserine exposed on the dying apoptotic cell surface while PI will only stain dead cells whose plasma-membrane integrity is compromised. This assay can discriminate intact cells (annexin^−/PI^−), apoptotic cells (annexin^+/PI^−) and necrotic or late apoptotic cells (annexin^+/PI^+)."}, "[2]": {"tested_on": "A549 cells", "assay": "A549 apoptosis, annexin-V/PI flow cytometry and PARP cleavage", "format": "cell-based, human", "settings": "for percentage of cells undergoing apoptosis: 10 μM, 48 h, vehicle 6.3%; for cleavage of poly (ADP-ribose) polymerase (PARP): A549 cells treated with compound", "protocol": "as §2"}, "[3]": {"tested_on": "primary rat neurons", "protocol": "E18 rat neurons were isolated from Sprague-Dawley rats at 18 days after gestation. The isolated neurons were plated into a 6-well plate coated with poly-D-lysine. On day 5 after plating the neurons, different compounds of indicated concentrations were added (in triplicates) and incubated with the neurons for 48 h. Then the neurons were harvested and the number of live neurons was counted with a hemacytometer after staining with trypan blue. Data were presented as mean±SD.\nCREB is a pleiotrophic factor involved in many different cellular processes including neuronal survival. The possibility of neuronal cell death might be a concern for CREB inhibitors in the future clinical applications if they could cross the blood brain barrier. Therefore, the toxicity of naphthol AS-E phosphate (i) or its active form, naphthol AS-E (ii), to primary rat neurons was investigated. Isolated E18 rat neurons were treated with increasing concentrations of naphthol AS-E phosphate (i) or naphthol AS-E (ii) for 48 h. […] At the end of the treatment, the neurons were collected and the number of live neurons were counted using trypan blue exclusion assay (FIG. 3)."}, "[4]": {"tested_on": "CREB-mediated gene transcription", "assay": "CRE firefly luciferase reporter assay in HEK 293 cells", "format": "cell-based", "settings": "forskolin 10 μM, normalized to renilla luciferase", "protocol": "as §1\nIn this assay, HEK 293 cells were transiently transfected with a luciferase reporter plasmid which expresses firefly luciferase under the control of three copies of CREB-response element (CRE). Additionally, an internal control plasmid constitutively expressing renilla luciferase was co-transfected to normalize transfection efficiency across the wells. The inhibition flirt-fly luciferase transcription seen in HEK 293 cells by compound i was not due to cell death because the firefly luciferase activity was normalized to renilla luciferase activity and the number of live cells after compound treatment was the same for all the different concentrations tested."}, "[5]": {"assay": "Hydrolysis of naphthol AS-E phosphate in tissue culture media (DMEM), HPLC", "quoted_text": "(A) Representative HPLC chromatograms of aliquots of the incubation mixture containing naphthol AS-E phosphate (i, 500 μM), 1-naphthalenemethanol (1 mM) and DMEM with 10% FBS at different time points. […] 1-Naphthalenemethanol was included as an internal standard. The minor peaks on the chromatograms are components from DMEM, which contains various amino acids, vitamins and carbohydrates. (B) Time-dependent increases of naphthol AS-E during the hydrolysis of naphthol AS-E phosphate. The data were extracted from the experiment presented in (A). The concentration of naphthol AS-E was determined based on the calibration curve shown in (C).\nNapthol AS-E phosphate was incubated with tissue culture media (Dulbecco's Modified Eagle Medium, DMEM) containing 10% fetal bovine serum (FBS) at 37° C. along with an internal standard, 1-naphthalenemethanol. The hydrolysis of napthol AS-E phosphate was then monitored by reverse phase HPLC at various time points."}},
  "note": "Read-outs that look alike come from different tables or passages of the source.",
  "data": [
    {"smiles": "O=C(Nc1ccc(Cl)cc1)c1cc2ccccc2cc1O", "note": "[naphthol AS-E]", "values": [
      {"measurement": "A549 cell proliferation", "setting": "[1]", "value": "inhibited A549 cell proliferation"},
      {"measurement": "percentage of cells undergoing apoptosis", "setting": "[2]", "value": 19.8, "unit": "%"},
      {"measurement": "cleavage of poly (ADP-ribose) polymerase (PARP)", "setting": "[2]", "value": "detected"},
      {"measurement": "neuronal cell death", "setting": "[3]; E18 rat neurons, 48 h, naphthols up to 10 μM, CPT positive control", "value": "no significant neuronal cell death"}
    ]},
    {"smiles": "O=C(Nc1ccc(Cl)cc1)c1cc2ccccc2cc1OP(=O)(O)O", "note": "[naphthol AS-E phosphate]", "values": [
      {"measurement": "inhibition of CREB-mediated gene transcription", "setting": "[4]", "value": "strongly inhibited"},
      {"measurement": "A549 cell proliferation", "setting": "[1]", "value": "inhibited A549 cell proliferation"},
      {"measurement": "percentage of cells undergoing apoptosis", "setting": "[2]", "value": 22.7, "unit": "%"},
      {"measurement": "cleavage of poly (ADP-ribose) polymerase (PARP)", "setting": "[2]", "value": "detected"},
      {"measurement": "neuronal cell death", "setting": "[3]", "value": "no significant neuronal cell death"},
      {"measurement": "hydrolysis of phosphate i to naphthol ii after 25-h incubation", "setting": "[5]; DMEM with 10% FBS, 37° C.", "value": "complete hydrolysis"},
      {"measurement": "period of constant rate of increase of naphthol AS-E", "setting": "[5]; DMEM with 10% FBS, initial zero-order kinetics", "value": "> 8.5", "unit": "h"},
      {"measurement": "hydrolysis in tissue culture media without FBS", "setting": "[5]; DMEM without FBS, 24 h", "value": "did not generate any hydrolysis product"}
    ]}
  ]
}
